Assays:
[1] = system: HepG2 cells; assay: Phase contrast microscopy of morphological changes in HepG2 cells; assay type: cell-based, human
Method: FIG. 2A is a graph comparison of IC50 of Uttroside B in a panel of cancer cells of different origin. The cancer cell lines HeLa, A375, HepG2, MDA-MB-231, HL 60, A549 and HCT116 were treated with Uttroside B as indicated, incubated for 72 h and the cell viability was assessed by MTT assay. FIG. 2B is a graph showing dose dependent effect of Uttroside B in the liver cancer cell lines and in normal immortalized hepatocytes. The liver cancer cell lines HepG2, Hep3B, SKHEP-1, Huh-7 and normal hepatocytes (Chang liver), were treated with Uttroside B incubated for 72 h and the cell viability was assessed by MTT assay. FIG. 2C is a graph comparison of IC50 of Uttroside B with sorafenib. HepG2 cells were treated with Uttroside B as indicated, incubated for 72 h, and the cell viability was assessed by MTT assay. FIG. 2D is an image of the morphological changes induced by Uttroside B in HepG2 cells. […] FIG. 2E is an image showing Uttroside B inhibits the clonogenic potential of HepG2 cells. HepG2 cells were treated with different concentrations of Uttroside B for 72 h and the clonogenic assay was performed. FIG. 2F is a graph comparison of efficacy of Uttroside B in inhibiting the clonogenic potential of HepG2 cells. The clones developed were counted and plotted as a graph. Colony containing more than four cells was counted as one clone. […]

[2] = system: caspases 8, 9 & 7 and PARP in HepG2 cells; assay: Western blot of caspase activation and PARP cleavage in HepG2 cells; assay type: cell-based, human
Method: FIGS. 3A-3F show Uttroside B induces caspase-dependent apoptosis leading to PARP cleavage in HepG2 cells while being independent of cell cycle. FIGS. 3A-3E are images of Western blots showing caspase activation in HepG2 cells. Whole-cell extracts were prepared after treating HepG2 cells with indicated concentrations of Uttroside B for 48 h, the whole cell lysate was resolved on a 15% gel and subjected to western blotting using antibodies against the caspases 8, 9 & 7 detected by ECL. HepG2 cells were treated with Uttroside B for 48 h at different concentrations and the whole cell lysate was resolved on a 10% gel, immunoblotted against anti-PARP and detected by ECL. […] HepG2 cells were treated with Uttroside B for 48 h, stained with propidium iodide and the cell cycle analysis was done using fluorescence activated cell sorter. Curcumin 25 μM (24 h) is used as positive control.
Western blot analysis. Approximately 0.5×10^6 cells were grown on 60 mm culture plates and exposed to drugs as indicated for the desired time. The cells were then scraped out, washed in ice cold 1× PBS and pelleted down at 13000 rpm for 2 min. The pelleted cells were suspended in 150 μL of ice-cold whole cell lysis buffer[(20 mMTris of pH 7.4, 250 mM NaCl, 2 mM EDTA, 0.1% Triton, 1 mM DTT (1,4-dithiothreitol), 0.5 mM PMSF, 4 mM sodium orthovanadate, aprotinin (5 mg m/L) and leupeptin (5 mg m/L)] and kept in ice for 30 min, with intermittent vortexing every 5 min. After incubation, the lysate was centrifuged at 13000 rpm for 10 min at 4° C. and the supernatant was collected. The total protein content in the lysate was estimated by Bradford's method, and was then denatured by boiling with 5× loading dye before separating the proteins by SDSpolyacrylamidegel electrophoresis (SDS-PAGE). Following electrophoresis, the polyacrylamide gel and a PVDF membrane were equilibrated with Towbins buffer (1 L, 25 mM Tris, 192 mM glycine, 20% (v/v) methanol (pH 8.3) for 15-30 min and the separated proteins were electro-transferred to PVDF membrane (Hybond-P, GE Healthcare Life science) using Bio-Rad Mini PROTEAN III wet blot apparatus at 100 V for 2 h at cold conditions. After the transfer, the membrane was rinsed with TBS-T (20 mM Tris pH 7.5, 150 mM NaCl, 0.1% Tween 20) buffer and stained with Ponceau-S to ensure uniform transfer. After washing off the Ponceau stain with TBST, the membrane was exposed to 5% fat free milk in TBST buffer for 1 h at room temperature to block the nonspecific binding of antibodies, followed by overnight incubation with the primary antibody [1:1000 dilution] in 3% BSA in TBST buffer at 4° C. […]

[3] = HepG2, 48 h, concentration dependent

C[C@H](CC[C@@]1(O)O[C@H]2C[C@H]3[C@@H]4CC[C@H]5C[C@@H](O[C@@H]6O[C@H](CO)[C@H](O[C@@H]7O[C@H](CO)[C@@H](O)[C@H](O[C@@H]8OC[C@@H](O)[C@H](O)[C@H]8O)[C@H]7O[C@@H]7O[C@H](CO)[C@@H](O)[C@H](O)[C@H]7O)[C@H](O)[C@H]6O)CC[C@]5(C)[C@H]4CC[C@]3(C)[C@H]2[C@@H]1C)CO[C@@H]1O[C@H](CO)[C@@H](O)[C@H](O)[C@H]1O [Uttroside B]
morphological changes characteristic of apoptosis ([1]; 72 h, dose dependent): Nuclear condensation, membrane blebbing and formation of apoptotic bodies
vacuole formation ([1]; HepG2, 24 h): induces vacuole formation
cleavage of PARP ([2]; HepG2, 48 h): strong cleavage of the mother band to its daughter bands
cleavage of procaspase 7 [2, 3]: procaspase 7 into its active fragment (p-20) were also enhanced
cleavage of procaspase 8 [2, 3]: increase in the cleavage of procaspase 8 to its active fragments
cleavage of procaspase 9 ([2]; HepG2, Western blot): time-dependent and concentration-dependent increase in the cleavage of procaspase 9

Source: patent US11607422B2, “Uttroside B and derivatives thereof as therapeutics for hepatocellular carcinoma” (Rajiv Gandhi Centre for Biotechnology, an Autonomous …, priority 2016, dated 2023)
